PMC1500806, “Carrageenan Is a Potent Inhibitor of Papillomavirus Infection” (PLoS Pathogens, 2006)
Values after ≈ are worked out from the molar mass of the structure shown. Positions of bridges follow the written chain, without caps; N, C: chain ends. Non-standard residues stand in square brackets, D forms with d. Residues, ends and D or L forms follow the SMILES beside them. *: point of attachment. Ileψ(thiazoline)Cys = CC[C@H](C)[C@H](N)C1=N[C@H](C(=O)*)CS1; dOrn = NCCC[C@@H](N)C(=O)O

Tested on: not listed separately
Assay: Cytotoxicity (WST-1 turnover and/or cell morphology)
Assay type: cell-based
Settings: human, HeLa cells; >50% reduction in WST-1 turnover and/or altered cell morphology
Method: (§1) Compounds were tested using a previously described PsV-based papillomavirus inhibition assay. Briefly, HeLa cells were plated at 6,000 cells/well in 50 μl of medium in 96-well plates. Candidate inhibitors were dissolved at 1–10 mg/ml (or reconstituted as directed by manufacturer) in sterile water or appropriate solvent, then subjected to a ten-point three-fold serial dilution covering an appropriate concentration range. Diluted candidate inhibitor (50 μl) was added to preplated HeLa cells, followed by 50 μl of diluted PsV stock. The cells were incubated for 24 h, fed by addition of 100 μl of DMEM-10, then subjected to flow cytometric analysis 48–56 h after infection. IC50 values and 95% CI were determined using Prism (GraphPad Software, San Diego, California, United States) to calculate a variable slope sigmoidal dose-response curve.
(§2) Cytotoxicity was defined as a >50% reduction in the net turnover of the metabolic substrate WST-1 (Roche, Indianapolis, Indiana, United States) and/or by the appearance of dramatic alterations in the microscopic appearance of cell morphology at the time of harvest.

Compound | CC50
CC[C@H](C)[C@H](N)C1=N[C@H](C(=O)N[C@@H](CC(C)C)C(=O)N[C@H](CCC(=O)O)C(=O)N[C@H](C(=O)N[C@H]2CCCCNC(=O)[C@H](CC(N)=O)NC(=O)[C@@H](CC(=O)O)NC(=O)[C@H](Cc3cnc[nH]3)NC(=O)[C@@H](Cc3ccccc3)NC(=O)[C@H]([C@@H](C)CC)NC(=O)[C@@H](CCCN)NC2=O)[C@@H](C)CC)CS1 [Bacitracin] ({Ileψ(thiazoline)Cys}-L[dE]IK[dOrn]I[dF]H[dD]N; lactam 4-C (inferred)) | > 420 µg/mL
CC[C@H](C)[C@H](NC(=O)CNC(=O)[C@H](CC(=O)O)NC(=O)[C@H](CCCNC(=N)N)NC(=O)[C@@H](NC(=O)[C@H](CC(N)=O)NC(=O)[C@H](CCC(N)=O)NC(=O)CNC(=O)[C@@H](NC(=O)[C@H](CCCCN)NC(=O)[C@H](CCC(=O)O)NC(=O)[C@@H](NC(=O)[C@H](CCCCN)NC(=O)[C@H](CCCCN)NC(=O)[C@H](Cc1ccccc1)NC(=O)[C@H](CC(C)C)NC(=O)[C@H](CCCCN)NC(=O)[C@H](Cc1c[nH]c2ccccc12)NC(=O)[C@@H](N)CCCCN)[C@@H](C)CC)C(C)C)[C@@H](C)CC)C(=O)N[C@H](C(=O)N[C@@H](CCCCN)C(=O)N[C@@H](C)C(=O)NCC(=O)N1CCC[C@H]1C(=O)N[C@@H](C)C(=O)N[C@H](C(=O)N[C@@H](C)C(=O)N[C@H](C(=O)N[C@H](C(=O)NCC(=O)N[C@@H](CCC(N)=O)C(=O)N[C@@H](C)C(=O)N[C@H](C(=O)N[C@@H](CCC(N)=O)C(=O)N[C@H](C(=O)N[C@@H](C)C(=O)N[C@@H](CCCCN)C(N)=O)[C@@H](C)CC)[C@@H](C)O)C(C)C)C(C)C)C(C)C)[C@@H](C)CC [Cecropin A (porcine)] (H-KWKLFKKIEKVGQNIRDGIIKAGPAVAVVGQATQIAK-NH2; N-terminus and C-terminus assumed) | > 100 µg/mL
CC[C@H](C)[C@H](NC(=O)[C@H](CCCCN)NC(=O)[C@H](CCCCN)NC(=O)[C@H](Cc1ccccc1)NC(=O)[C@H](CC(C)C)NC(=O)[C@H](CCCCN)NC(=O)[C@H](Cc1c[nH]c2ccccc12)NC(=O)[C@@H](N)CCCCN)C(=O)NCC(=O)N[C@@H](C)C(=O)N[C@H](C(=O)N[C@@H](CC(C)C)C(=O)N[C@@H](CCCCN)C(=O)N[C@H](C(=O)N[C@@H](CC(C)C)C(N)=O)C(C)C)C(C)C [Cecropin A-Mellitin hybrid] (H-KWKLFKKIGAVLKVL-NH2; N-terminus and C-terminus assumed) | 11 µg/mL (≈ 6.21 µM)
CC(C)C[C@H](NC(=O)[C@H](C)NC(=O)[C@H](CCCCN)NC(=O)[C@H](CCCCN)NC(=O)[C@H](CC(C)C)NC(=O)[C@H](C)NC(=O)[C@H](CCCCN)NC(=O)[C@H](CCCCN)NC(=O)[C@H](CC(C)C)NC(=O)[C@H](CCCCN)NC(=O)[C@H](CCCCN)NC(=O)[C@H](CC(C)C)NC(=O)[C@H](C)NC(=O)[C@H](CCCCN)NC(=O)[C@H](CCCCN)NC(=O)[C@H](CC(C)C)NC(=O)[C@H](C)NC(=O)[C@H](CCCCN)NC(=O)[C@H](CC(C)C)NC(=O)[C@H](C)NC(=O)[C@H](CC(C)C)NC(=O)[C@H](C)NC(=O)[C@@H](N)Cc1ccccc1)C(=O)O [Hecate] (H-FALALKALKKALKKLKKALKKAL-OH; N-terminus and C-terminus assumed) | 17 µg/mL (≈ 6.7 µM)
CSCC[C@H](NC(=O)[C@H](CCCNC(=N)N)NC(=O)[C@H](Cc1c[nH]c2ccccc12)NC(=O)[C@H](CCC(N)=O)NC(=O)[C@H](Cc1c[nH]c2ccccc12)NC(=O)[C@H](CCCNC(=N)N)NC(=O)[C@@H](N)CCCNC(=N)N)C(=O)N[C@@H](CCCCN)C(=O)N[C@@H](CCCCN)C(=O)N[C@@H](CC(C)C)C(=O)NCC(=O)O [Lactoferricin B 4–14 fragment] (H-RRWQWRMKKLG-OH; N-terminus and C-terminus assumed) | > 15 µg/mL
CC[C@H](C)[C@H](NC(=O)CN)C(=O)NCC(=O)N[C@@H](CCCCN)C(=O)N[C@@H](Cc1ccccc1)C(=O)N[C@@H](CC(C)C)C(=O)N[C@@H](Cc1c[nH]cn1)C(=O)N[C@@H](CO)C(=O)N[C@@H](C)C(=O)NCC(=O)N[C@@H](CCCCN)C(=O)N[C@@H](Cc1ccccc1)C(=O)NCC(=O)N[C@@H](CCCCN)C(=O)N[C@@H](C)C(=O)N[C@@H](Cc1ccccc1)C(=O)N[C@H](C(=O)NCC(=O)N[C@@H](CCC(=O)O)C(=O)N[C@H](C(=O)N[C@@H](CCSC)C(=O)N[C@@H](CCCCN)C(=O)N[C@@H](CO)C(=O)O)[C@@H](C)CC)C(C)C [Magainin-I] (H-GIGKFLHSAGKFGKAFVGEIMKS-OH) | > 100 µg/mL
CC[C@H](C)[C@H](NC(=O)CN)C(=O)NCC(=O)N[C@@H](C)C(=O)N[C@H](C(=O)N[C@@H](CC(C)C)C(=O)N[C@@H](CCCCN)C(=O)N[C@H](C(=O)N[C@@H](CC(C)C)C(=O)N[C@H](C(=O)N[C@H](C(=O)NCC(=O)N[C@@H](CC(C)C)C(=O)N1CCC[C@H]1C(=O)N[C@@H](C)C(=O)N[C@@H](CC(C)C)C(=O)N[C@H](C(=O)N[C@@H](CO)C(=O)N[C@@H](Cc1c[nH]c2ccccc12)C(=O)N[C@H](C(=O)N[C@@H](CCCCN)C(=O)N[C@@H](CCCNC(=N)N)C(=O)N[C@@H](CCCCN)C(=O)N[C@@H](CCCNC(=N)N)C(=O)N[C@@H](CCC(N)=O)C(=O)N[C@@H](CCC(N)=O)C(N)=O)[C@@H](C)CC)[C@@H](C)CC)[C@@H](C)O)[C@@H](C)O)C(C)C)C(C)C [Melittin] | 4 µg/mL (≈ 1.41 µM)
CC(C)[C@H](NC(=O)[C@H](CCCCN)NC(=O)CNC(=O)CNC(=O)[C@H](CCC(N)=O)NC(=O)[C@H](CCCCN)NC(=O)CNC(=O)[C@H](CCCNC(=N)N)NC(=O)CNC(=O)[C@@H](N)CCCCN)C(=O)N[C@@H](CCCNC(=N)N)C(=O)N[C@@H](C)C(=O)N[C@@H](CCCCN)C(=O)N[C@@H](C)C(=O)N[C@@H](CCCCN)C(=O)N[C@H](C(=O)N[C@@H](CCCNC(=N)N)C(=O)N[C@@H](CO)C(=O)N[C@@H](CO)C(=O)O)[C@@H](C)O [Parasin-I] (H-KGRGKQGGKVRAKAKTRSS-OH) | > 100 µg/mL
N=C(N)NCCC[C@H](NC(=O)[C@H](CCCNC(=N)N)NC(=O)[C@H](CCCNC(=N)N)NC(=O)[C@H](CCCNC(=N)N)NC(=O)[C@H](CCCNC(=N)N)NC(=O)[C@H](CCCNC(=N)N)NC(=O)[C@@H](N)CCCNC(=N)N)C(=O)O [Poly-arginine7] | > 100 µg/mL
CC[C@H](C)[C@@H]1NC(=O)CNC(=O)[C@H](CCCNC(=N)N)NC(=O)[C@H](Cc2ccc(O)cc2)NC(=O)[C@@H]2CSSC[C@H](NC1=O)C(=O)N[C@@H](Cc1ccc(O)cc1)C(=O)N[C@@H](CCCNC(=N)N)C(=O)N[C@@H](CCCNC(=N)N)C(=O)N[C@H](C(=O)N[C@@H](CCCNC(=N)N)C(N)=O)CSSC[C@H](NC(=O)[C@H](Cc1c[nH]c3ccccc13)NC(=O)[C@@H](N)CCCCN)C(=O)N[C@@H](Cc1ccccc1)C(=O)N[C@@H](CCCNC(=N)N)C(=O)N[C@@H](C(C)C)C(=O)N2 [Tachyplesin-I] (H-KWCFRVCYRGICYRRCR-NH2; disulfide 3-16, 7-12) | 100 µg/mL (≈ 44.2 µM)
C[C@@H](O)[C@H](N)C(=O)N[C@@H](CCCCN)C(=O)N1CCC[C@H]1C(=O)N[C@@H](CCCNC(=N)N)C(=O)O [Tuftsin] (H-TKPR-OH; N-terminus and C-terminus assumed) | > 100 µg/mL

Tested on: HeLa cells
Assay: as above
Assay type: cell-based
Settings: not given
Method: as §1, §2

Compound | Cytotoxicity
OCCS [2-Mercaptoethanol] | >100 µg/mL
O[C@@H](CS)[C@@H](O)CS [Dithiothreotol] | >100 µg/mL
O=C(O)c1cc(SSc2ccc([N+](=O)[O-])c(C(=O)O)c2)ccc1[N+](=O)[O-] [Ellman's reagent] | 1,300 μg/ml
Cl.N=C(N)N [Guanidine hydrochloride] | >475 µg/mL
C[C@@H]1[C@H](O)[C@@H](C)/C=C/C=C/CC/C=C/C=C/C=C/C=C/C(O[C@H]2O[C@H](C)[C@@H](O)[C@H](N)[C@@H]2O)CC2O[C@](O)(CC(O)C(O)CCC(O)CC(O)CC(O)CC(=O)O[C@H]1C)CC(O)C2C(=O)O (stereo partly shown) [Nystatin] | 100 µg/mL
CCCCCCCCCCCCOS(=O)(=O)[O-].[Na+] [Sodium dodecyl sulfate] | 333 µg/mL

Same assay, conditions: >50% reduction in WST-1 turnover and/or altered cell morphology

Compound | Cytotoxicity
O=[N+]([O-])c1ccc(Cl)c([N+](=O)[O-])c1 [1-Chloro-2,4-dinitrobenzene (DNCB), 1-Chloro-2,4-dinitrobenzene] | 7 µg/mL
Gelatin | >100 µg/mL
Gramicidins A-D [Gramicidins A-D (B. Brevis)] | 1.2 µg/mL
Poly-(arginine-aminocaproyl) | >100 µg/mL

Same assay, conditions: human

Compound | Cytotoxicity
CCCCS(=N)(=O)CCC(N)C(=O)O (stereo not shown) [Buthionine sulfoximine (BSO), Buthionine sulfoximine] | >7 µg/mL
